Measurements reported in PubChem BioAssay (NCI).
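Cells were grown in 96-well plates and exposed to each compound for 48 hours at five concentrations; endpoints were interpolated linearly between bracketing concentrations, or set to the highest concentration if not reached. TGI marks complete inhibition of growth.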

Experiments:
Test in all cases: inhibition of tumour cell growth, NCI panel, 48 h
MDA-MB-231 breast = test system: MDA-MB-231 breast
SK-MEL-2 melanoma = test system: SK-MEL-2 melanoma
NCI/ADR-RES ovarian = test system: NCI/ADR-RES ovarian
HOP-92 NSCLC = test system: HOP-92 NSCLC
COLO 205 colon = test system: COLO 205 colon
HOP-62 NSCLC = test system: HOP-62 NSCLC
MCF7 breast = test system: MCF7 breast
HL-60(TB) leukemia = test system: HL-60(TB) leukemia
SK-MEL-28 melanoma = test system: SK-MEL-28 melanoma
HCT-116 colon = test system: HCT-116 colon
NCI-H522 lung = test system: NCI-H522 lung
U251 CNS = test system: U251 CNS
KM12 colon = test system: KM12 colon
OVCAR-5 ovarian = test system: OVCAR-5 ovarian
SF-539 CNS = test system: SF-539 CNS
TK-10 renal = test system: TK-10 renal
HCC-2998 colon = test system: HCC-2998 colon

Row | Compound | TGI (MDA-MB-231 breast) | TGI (SK-MEL-2 melanoma) | TGI (NCI/ADR-RES ovarian) | TGI (HOP-92 NSCLC) | TGI (COLO 205 colon) | TGI (HOP-62 NSCLC) | TGI (MCF7 breast) | TGI (HL-60(TB) leukemia) | TGI (SK-MEL-28 melanoma) | TGI (HCT-116 colon) | TGI (NCI-H522 lung) | TGI (U251 CNS) | TGI (KM12 colon) | TGI (OVCAR-5 ovarian) | TGI (SF-539 CNS) | TGI (TK-10 renal) | TGI (HCC-2998 colon)
1 | CN(CCC(=O)O)C1=Nc2ccc(Cl)cc2C(c2ccccc2)=[N+]([O-])C1 | > 100 µM | > 100 µM | > 100 µM | > 100 µM | > 100 µM | > 100 µM | > 100 µM | > 100 µM | > 100 µM | > 100 µM | > 100 µM | > 100 µM | > 100 µM | > 100 µM | > 100 µM | > 100 µM | 
2 | COc1ccc(C(=O)c2sc(N(C)C)nc2-c2ccccc2)cc1 | > 100 µM | 76.5 µM | 49.8 µM | > 100 µM | > 100 µM | > 100 µM | > 100 µM | 40.9 µM | > 100 µM | > 100 µM |  | > 100 µM | 73 µM | > 100 µM | > 100 µM | > 100 µM | 48.5 µM
3 | CC(C)(C)C(=O)OCOP(=O)(OCOC(=O)C(C)(C)C)OCC1OC(n2ccc(=O)[nH]c2=O)C(N=[N+]=[N-])C1O (stereo not drawn) | 21.1 µM |  | 23.5 µM | 5 µM | 13.5 µM | 14.5 µM | 14.7 µM | 4.84 µM | 24 µM | 12 µM | 17.5 µM | 10.5 µM | 12.8 µM | 16.1 µM | 8.88 µM | 22.3 µM | 13.4 µM
4 | Cc1ccc([N+](=O)[O-])cc1S(=O)(=O)Nc1ccc(C2=NN(c3ccc([N+](=O)[O-])cc3[N+](=O)[O-])C(c3cccs3)C2)cc1 (stereo not drawn) | 50.8 µM | 32.7 µM | 41.4 µM | 84.6 µM | 54.5 µM | 58.3 µM | 80.1 µM | 62.9 µM | > 100 µM | 29.3 µM | 39 µM | 72.3 µM | 55.6 µM | > 100 µM | 71.2 µM | 81.7 µM | 
5 | CC(=O)c1sc2c(c1OC(=O)c1ccco1)c(=O)n(-c1ccccc1)c(=S)n2-c1ccccc1 | 47.1 µM | 39.2 µM | 51.2 µM | 22 µM | 37.9 µM | 66.8 µM | 55.4 µM | 45 µM | 61.9 µM | 41.1 µM | 39.7 µM | 88.1 µM | 48.5 µM |  | 20.6 µM | 92.6 µM | 
6 | C[N+](C)(C)CCCSc1nc2ccccc2[nH]1 | > 100 µM | > 100 µM | > 100 µM | > 100 µM | > 100 µM | > 100 µM | > 100 µM | > 100 µM | > 100 µM | > 100 µM | > 100 µM | > 100 µM | > 100 µM | > 100 µM |  | > 100 µM | > 100 µM
7 | COc1ccc(C[C@@H](CO)NC2=C(C#N)CCC2)cc1 | > 100 µM | > 100 µM | > 100 µM | > 100 µM | > 100 µM | > 100 µM | > 100 µM | 27.8 µM | > 100 µM | > 100 µM |  | > 100 µM | 63.5 µM | > 100 µM | > 100 µM | > 100 µM | > 100 µM
8 | O=c1cc(N2CCNCC2)nc2ccccn12 | > 100 µM | > 100 µM | > 100 µM | > 100 µM | > 100 µM | > 100 µM | > 100 µM | > 100 µM |  | > 100 µM | > 100 µM | > 100 µM | > 100 µM | > 100 µM | > 100 µM | > 100 µM | > 100 µM
9 | COC(=O)C1=C(O)C(C(=O)OC)[C@]2(O)[C@H](C(=O)OC)[C@H]1C[C@@H](c1ccc(OC)c(OC)c1)[C@H]2C(=O)OC (stereo partly drawn) | > 100 µM | 99.4 µM | 54.5 µM | > 100 µM | 66.3 µM | > 100 µM | > 100 µM | 62.9 µM | 90.7 µM | > 100 µM |  | 25.3 µM | 54.5 µM | > 100 µM | 20.7 µM | > 100 µM | 27.1 µM
10 | Cc1cc(C)c2c(O)c(S(=O)(=O)c3ccc(Cl)cc3)c(=O)oc2c1 | > 100 µM | > 100 µM | > 100 µM | > 100 µM | > 100 µM | > 100 µM | > 100 µM | > 100 µM | > 100 µM | > 100 µM |  | > 100 µM | > 100 µM | > 100 µM | > 100 µM |  | 
11 | CCOC(=O)N(NC(=O)NC(C)C)c1ccccc1 | > 100 µM | > 100 µM | > 100 µM | > 100 µM | > 100 µM | > 100 µM | > 100 µM | > 100 µM | > 100 µM | > 100 µM |  | > 100 µM | > 100 µM | > 100 µM | > 100 µM | > 100 µM | > 100 µM
12 | O=C(O)CCCn1nnc2c(=O)[nH][nH]c(=O)c21 | > 100 µM | > 100 µM | > 100 µM | > 100 µM | > 100 µM | > 100 µM | > 100 µM | > 100 µM | > 100 µM | > 100 µM |  | > 100 µM | > 100 µM | > 100 µM |  | > 100 µM | > 100 µM
13 | N#CC1C(=O)N(c2ccccc2)NC12OC(=O)c1ccncc12 (stereo not drawn) | > 20 µM | > 20 µM | > 20 µM | > 20 µM | > 20 µM |  | > 20 µM | > 20 µM | > 20 µM | > 20 µM | > 20 µM | > 20 µM |  | > 20 µM | > 20 µM |  | > 20 µM
14 | Nc1nc(I)nc2c1ncn2C1OC(COS(N)(=O)=O)C(O)C1O (stereo not drawn) | < 0.0238 µM | 0.0107 µM | < 0.0125 µM | 0.0464 µM | 0.0167 µM | 0.0836 µM | 0.207 µM |  | 0.0148 µM | 0.0534 µM | < 0.01 µM | 0.0243 µM | 0.0297 µM | 0.0189 µM | < 0.014 µM | 0.071 µM | 0.0311 µM
